Source: US9597407B2, “Targeted antimicrobial moieties” (C3 Jian, Inc., priority 2009, dated 2017)
“Also recorded” adds a separate entry of the source. Ends that are not written are not given here.

Experiments:
microorganisms [1] = test: Peptide activities: binding, antimicrobial, growth or phenotype altering (Table 8)
From the text: In certain embodiments, peptides described herein can have multiple activities. Thus for example, a peptide can have both binding/targeting activity and antimicrobial activity. Such peptides can be used, e.g., in a chimeric construct, for any or all of these properties. Thus, for example, a peptide designated “B” in Table 8 can be used as a targeting peptide. If it is also designated G or M it can also be used for antimicrobial activity.

bacteria = test: Binding of targeting peptides to microorganisms (Table 3); details: preferably 1x PBS; for Target(s) (microorganism bound by the targeting peptide) / Target(s) (microorganisms bound by the targeting peptide): peptide binding in aqueous buffers that varied depending on peptide solubility; for Target(s): microorganism the targeting peptide binds, binding in aqueous buffers that varied with peptide solubility
microorganisms [2] = test: Morphology, biofilm and growth disruption by peptides (Table 5); type: cell-based; set-up: key: A: Peptide aggregates; B: Less hyphal formation; Clumps; Diffuse clumps and small polyps; F: Diffuse growth; H: Thin; I: Growth inhibition; Microcolony formation; Rippled; Small polyps; Thick; W: Halo formation on top, microlonies on bottom
From the text: In certain embodiments peptides that induce alterations in phenotype or other biological activities can also be used as antimicrobial effector moieties.

Row | Substance | Activities (microorganisms [1]) | Target(s) (bacteria) | Organism, effect (microorganisms [2]; MRSA) | Target(s) (microorganisms bound by the targeting peptide) (bacteria) | Organism, effect (morphology, biofilm and growth disruption) (microorganisms [2]; S. pneumoniae) | other results
1 | PF-C058 (FETGFGDGYYMSLWGLNEKDEVCKVVIPFINPELID; Peptide with targeting and/or antimicrobial activity) | G B |  |  |  |  | Target(s) (microorganism bound by the targeting peptide) (bacteria): A. naeslundii; also recorded: F. nucleatum; also recorded: P. gingivalis; also recorded: S. mutans; Organism, effect (morphology, biofilm and growth disruption) (microorganisms [2]; S. mutans): S. mutans (F)
2 | PF-026 (SIHFIN; Peptide with targeting and/or antimicrobial activity) | G B | S. epidermidis and M. luteus and P. mirabilis and C. albicans and MRSA and E. faecalis and C. jeikeium | MRSA (M) |  |  | 
3 | PF-053 (KLFGQWGPELGSIYILPALIGSIILIAIVTLILRAMRK; Peptide with targeting and/or antimicrobial activity) | G B | S. epidermidis and M. luteus and E. coli and P. aeruginosa and C. albicans and MRSA and S. pneumoniae and E. faecalis | MRSA (D) |  |  | Organism, effect (microorganisms [2]; B. subtilis): B. subtilis (H); Organism, effect (microorganisms [2]; C. albicans): C. albicans (A); Organism, effect (microorganisms [2]; C. jeikeium): C. jeikeium (D); Organism, effect (microorganisms [2]; C. jejuni): C. jejuni (D); Organism, effect (microorganisms [2]; E. coli): E. coli (A); Organism, effect (microorganisms [2]; E. faecalis): E. faecalis (A); Organism, effect (microorganisms [2]; M. luteus): M. luteus (D); Organism, effect (microorganisms [2]; P. aeruginosa): P. aeruginosa (A); Organism, effect (microorganisms [2]; S. epidermidis): S. epidermidis (C); Organism, effect (microorganisms [2]; S. pneumoniae): S. pneumoniae (S)
4 | PF-513 (SNGVGLGVGIGSGIRF-NH2) | G B |  |  | C. albicans | S. pneumoniae (M) | 
5 | PF-476 (WADAQYKLCENCSE; Peptide with targeting and/or antimicrobial activity) | G B |  |  | M. luteus; also recorded: P. mirabilis; also recorded: C. albicans; also recorded: S. pneumoniae; also recorded: E. faecalis; also recorded: C. jeikeium; also recorded: C. jejuni | S. pneumoniae (H) | 
6 | PF-041 (ELLVILPGFI; Peptide with targeting and/or antimicrobial activity) | G B | MRSA | MRSA (M) |  |  | Organism, effect (microorganisms [2]; S. epidermidis): S. epidermidis (R)
7 | PF-446 (SGNEKV; Peptide with targeting and/or antimicrobial activity) | G B |  |  | M. luteus; also recorded: C. jeikeium | S. pneumoniae (H) | 
8 | PF-542 (KKDNPSLNDQDKNAVLNLLALAK; Peptide with targeting and/or antimicrobial activity) | G B |  |  | C. jeikeium | S. pneumoniae (H) | 
9 | PF-392 (DPAGCNDIVRKYCK; Peptide with targeting and/or antimicrobial activity) | G B |  | MRSA (S) | S. epidermidis; also recorded: B. subtilis; also recorded: S. pneumoniae; also recorded: C. jeikeium; also recorded: C. jejuni |  | Organism, effect (microorganisms [2]; C. jejuni): C. jejuni (A); Organism, effect (microorganisms [2]; E. faecalis): E. faecalis (A)
10 | PF-020 (MKIILLLFLIFGFIVVVTLKSEHQLTLFSI; Peptide with targeting and/or antimicrobial activity) | G B | S. epidermidis and M. luteus and C. albicans and MRSA and S. pneumoniae and E. faecalis | MRSA (C) |  |  | Organism, effect (microorganisms [2]; M. luteus): M. luteus (C); Organism, effect (microorganisms [2]; S. epidermidis): S. epidermidis (C); Organism, effect (microorganisms [2]; S. mutans): S. mutans (F); Organism, effect (microorganisms [2]; S. pneumoniae): S. pneumoniae (D)
11 | PF-764 (chain 1 GYFEPGKRD; chain 2 GYFEPGKRD; Peptide with targeting and/or antimicrobial activity) | G B |  |  |  | S. pneumoniae (H) | Target(s) (microorganism bound by the targeting peptide) (bacteria): S. epidermidis and M. luteus and C. albicans and MRSA and S. pneumoniae and E. faecalis and C. jeikeium; Organism, effect (morphology, biofilm and growth disruption) (microorganisms [2]; MRSA): MRSA (D)
